Measurements reported in ChEMBL document CHEMBL1128493, “Synthesis and sigma binding properties of 2'-substituted 5,9 alpha-dimethyl-6,7-benzomorphans” (J Med Chem, 1995).

What was measured:
[1] = Binding affinity measured on Sigma receptor type 1 from guinea pig brain membranes using [3H]pentazocine as radioligand.
[2] = Binding affinity at Sigma receptor type 2 on rat liver membranes receptor by [3H]DTG displacement.

For `CC1C2Cc3ccc(O)cc3C1(C)CCN2Cc1ccccc1` (single isomer, unassigned; (+)), the Ki [1] was 0.67 nM and the Ki [2] was 1710 nM.
